Measurements: US20250092003A1, “LIPID COMPOUND, COMPOSITION CONTAINING SAME AND USE” (SOUTH CHINA UNIVERSITY OF TECHNOLOGY, priority 2022, published 2025)

Columns and labels:
[1] = tested on: melanoma (B16F10-Luc) cell line capable of stably expressing firefly luciferase (Luc); experiment: siLuc transfection by lipid nanoparticles into B16F10-Luc cells, firefly luciferase expression; type: cell-based; details: for siLuc transfection efficiency: lipid nanoparticles (lipid compound:DSPC:cholesterol:DSPE-PEG 38:10:50:2), siRNA 50 ng/well, N/P ratios 4:1, 8:1 and 16:1, 24 h after transfection
Procedure: B16F10-Luc cells were inoculated into a 96-well cell culture plate. On the next day, transfection was performed when the cells grew to about 80%.
The mother solutions were stored in a refrigerator at −20° C., diluted as needed during use, and then mixed at a molar ratio of 38:10:50:2 (lipid compounds:DSPC:cholesterol:DSPE-PEG). The siLuc was dissolved in a citrate buffer solution (pH-4), where a volume of the citrate buffer solution was two times the volume of an ethanol-lipid mixture obtained above. Finally, the citrate buffer solution containing siLuc (pH=4) and the ethanol-lipid mixture were quickly and fully mixed and then shaken and incubated at room temperature for 30 min for self-assembly to form lipid nanoparticles. The assembled lipid nanoparticles were added to the 96-well cell culture plate containing the B16F10-Luc for transfection, respectively. Before the transfection, a culture solution in the culture plate was sucked out, and 80 μL of a new culture medium was added, where an added amount of the siRNA was 50 ng/well. Nitrogen-phosphorus ratios (N/P ratio) of the protonable lipid compounds to the siRNA were 4:1, 8:1 and 16:1, respectively.
Positive control group: The siLuc was transfected by Lipo2000, a commercial transfection reagent. Transfection was performed according to an operating instruction of the Lipo2000. 50 ng of the siLuc was added to 5 μL of Opti-MEM, and 0.3 μL of the Lipo2000 was added to another 50 μL of Opti-MEM. Finally, an siRNA Opti-MEM solution was added to a Lipo2000 Opti-MEM solution, evenly mixed, incubated at room temperature for 15 min, and then added to a 96-well cell culture plate. Before the transfection, a culture solution in the culture plate was sucked out, and 80 μL of a new culture medium was added, where an added amount of the siRNA was 50 ng/well.
Negative control group: Only the B16F10-Luc cells were used without transfection.
After the transfection was performed for 24 h, the cells were lysed and subjected to centrifugation to remove cell debris and contents, a supernatant was taken, a firefly luciferase substrate was added, and an expression amount of firefly luciferase was determined so as to compare the siLuc transfection efficiency of the synthesized lipid compounds.
The mother solutions were stored in a refrigerator at −20° C., diluted as needed during use, and then mixed at a molar ratio of 38:10:50:2 (lipid compounds:DSPC:cholesterol:DSPE-PEG). The siLuc was dissolved in a citrate buffer solution (pH=4), where a volume of the citrate buffer solution was two times the volume of an ethanol-lipid mixture obtained above. […]

293T cell line = experiment: plasmid DNA (pDNA-GFP-Luc) transfection by lipid nanoparticles into 293T cells; type: cell-based; details: pDNA-GFP-Luc 80 ng/well, N/P ratios 8:1, 16:1 and 32:1, 48 h after transfection

SMILES | siLuc transfection efficiency [1] | inhibition of gene expression of the firefly luciferase ([1]; lipid nanoparticles with siLuc, N/P ratios 4:1 to 32:1, 24 h after transfection) | plasmid transfection efficiency (firefly luciferase expression) compared with PEI (293T cell line)
CCCCCCCCCCCC(=O)OCC(O)CN(CCCN(C)C)CC(O)COC(=O)CCCCCCCCCCC (centres unmarked) [A1-C12] | about 95% |  | 
CCCCCCCCCCCC(=O)OCC(O)CN(CCCN1CCCC1)CC(O)COC(=O)CCCCCCCCCCC (centres unmarked) [A2-C12] | about 95% |  | 
CCCCCCCCCCCCCCCC(=O)OCC(O)CN(CCCN1CCCC1)CC(O)COC(=O)CCCCCCCCCCCCCCC (centres unmarked) [A2-C16] | about 95% |  | 
CCCCCCCCCCCC(=O)OCC(O)CN(CCN(CCN(CC(O)COC(=O)CCCCCCCCCCC)CC(O)COC(=O)CCCCCCCCCCC)CCN(CC(O)COC(=O)CCCCCCCCCCC)CC(O)COC(=O)CCCCCCCCCCC)CC(O)COC(=O)CCCCCCCCCCC (centres unmarked) [A12-C12] |  | almost completely inhibited | equivalent to that of the commercial reagent PEI
